Experimental findings from patent US20030229053A1, “Compounds and methods for the treatment or prevention of flavivirus infections” (Shire BioChem Inc., priority 2001, published 2003) are described below.

Chain of recombinant HCV NS5B (P26663 2420-3010 limits assumed): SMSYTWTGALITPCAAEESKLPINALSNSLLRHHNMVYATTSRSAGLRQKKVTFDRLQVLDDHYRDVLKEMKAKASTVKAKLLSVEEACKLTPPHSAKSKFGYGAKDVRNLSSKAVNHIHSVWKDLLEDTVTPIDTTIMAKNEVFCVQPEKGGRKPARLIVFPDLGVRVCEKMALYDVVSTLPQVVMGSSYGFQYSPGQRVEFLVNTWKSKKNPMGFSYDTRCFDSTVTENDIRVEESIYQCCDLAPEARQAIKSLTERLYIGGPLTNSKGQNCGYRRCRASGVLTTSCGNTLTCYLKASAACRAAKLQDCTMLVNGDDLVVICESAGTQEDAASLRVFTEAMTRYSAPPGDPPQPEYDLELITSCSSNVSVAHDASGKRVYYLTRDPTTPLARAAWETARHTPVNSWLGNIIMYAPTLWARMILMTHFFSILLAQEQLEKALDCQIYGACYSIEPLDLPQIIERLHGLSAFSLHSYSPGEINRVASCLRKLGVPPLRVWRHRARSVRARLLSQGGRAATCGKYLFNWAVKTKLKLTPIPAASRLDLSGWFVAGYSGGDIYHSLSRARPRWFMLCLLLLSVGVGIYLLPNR

In the experiment the target is recombinant HCV NS5B (Hepatitis C virus genotype 1b, UniProt P26663). Put plainly: biochemical. The note with it: flashplate, polyrA/biotinylated-oligo dT, 100 nM NS5B, 2 hrs at room temperature; read-out: RNA pol Assay 2 IC50 (μm). As to the method:
In vitro HCV RdRp Flashplate Scintillation Proximity Assay (Strep-Flash Assay) Used to Evaluate Analogues:
In brief, a 400 ng/μl polyrA solution (Amersham Pharmacia Biotech) was mixed volume-to-volume with 5′ biotin-oligo dT12 at 20 pmol/μl. The template and primers were denatured at 95 C for 5 minutes then incubated at 37 C for 10 minutes. Annealed template-primers were subsequently diluted in a Tris-HCl containing buffer and allowed to bind to streptavidin-coated flashplates overnight.
The IC50 is the concentration needed to halve the response being measured. On to `O=C(O)[C@H](Cc1ccccc1)N(C[C@H]1CCCN1)C(=O)c1ccc(Cl)cc1Cl` (stereo in doubt) [compound #168, d-2-[(2,4-Dichloro-benzoyl)-pyrrolidin-2-ylmethyl-amino]-3-phenyl-propionic acid], for which the 50% inhibitory concentration (IC50) lay in the range of 5 to 20 µM. Turning to `CN(C(=O)c1ccc(Cl)cc1Cl)[C@H](Cc1ccc(Br)s1)C(=O)O` (stereo in doubt) [compound #169, 3-(5-Bromo-thiophen-2-yl)-2-[(2,4-dichloro-benzoyl)-methyl-amino]-propionic acid], the IC50 is less than 5 µM.

For the compound `CN(C(=O)c1ccc(Cl)cc1Cl)[C@H](Cc1ccc(-c2cc3ccccc3o2)cc1)C(=O)O` [Compound #29, 3-(4-Benzofuran-2-yl-phenyl)-2-[(2,4-dichloro-benzoyl)-methyl-amino]-propionic acid], the IC50 lay within 5 to 20 µM. Consider `O=C(O)[C@H](Cc1ccccc1)N(Cc1cccc([N+](=O)[O-])c1)C(=O)c1ccc(Cl)cc1Cl` [Compound #53, (2S)-2-[(2,4-Dichloro-benzoyl)-(3-nitro-benzyl)-amino]-3-phenyl-propionic acid], for which the IC50 is less than 5 µM. For `COC(=O)c1cccc(CN(C(=O)c2ccc(Cl)cc2Cl)[C@@H](Cc2ccccc2)C(=O)O)c1` [Compound #117, 3-{[(1-Carboxy-2-phenyl-ethyl)-(2,4-dichloro-benzoyl)-amino]-methyl}-benzoic acid methyl ester], the concentration for half-maximal inhibition (IC50) is less than 5 µM.

Regarding `N#Cc1cccc(-c2ccc(CN(C(=O)c3ccc(Cl)cc3Cl)[C@@H](Cc3ccccc3)C(=O)O)o2)c1` [Compound #119, 2-[[5-(3-Cyano-phenyl)-furan-2-ylmethyl]-(2,4-dichloro-benzoyl)-amino]-3-phenyl-propionic acid], the IC50 is less than 5 µM. With `Cc1ccc(C(=O)N(Cc2cc(-c3ccc(F)c(Cl)c3)cs2)[C@@H](Cc2ccccc2)C(=O)O)c(C)c1` [Compound #192, 2-[[4-(3-Chloro-4-fluoro-phenyl)-thiophen-2-ylmethyl]-(2,4-dimethyl-benzoyl)-amino]-3-phenyl-propionic acid] the figure was less than 5 µM; with `O=C(O)c1cccc(CN(C(=O)c2ccc(Cl)cc2Cl)[C@@H](Cc2ccccc2)C(=O)O)c1` [Compound #193, 3-{[(1-Carboxy-2-phenyl-ethyl)-(2,4-dichloro-benzoyl)-amino]-methyl}-benzoic acid], less than 5 µM; with `Nc1cccc(CN(C(=O)c2ccc(Cl)cc2Cl)[C@@H](Cc2ccccc2)C(=O)O)c1` [Compound #194, 2-[(3-Amino-benzyl)-(2,4-dichloro-benzoyl)-amino]-3-phenyl-propionic acid], 5 to 20 µM. As for `O=C(O)[C@@H](Cc1ccccc1)N(Cc1ccccc1)C(=O)c1ccc(Cl)cc1Cl` [Compound #199, 2-[Benzyl-(2,4-dichloro-benzoyl)-amino]-3-phenyl-propionic acid], the IC50 lay within 5 to 20 µM. On to `O=C(O)C(Cc1ccccc1)N(Cc1cccc(-c2nn[nH]n2)c1)C(=O)c1ccc(Cl)cc1Cl` (stereo not drawn) [Compound #200, 2-{(2,4-DICHLORO-BENZOYL)-[3-(2H-TETRAZOL-5-YL)-BENZYL]-AMINO}-3-PHENYL-PROPIONIC ACID], for which the IC50 is less than 5 µM. Turning to `O=C(O)[C@H](Cc1ccccc1)N(Cc1ccccc1[N+](=O)[O-])C(=O)c1ccc(Cl)cc1Cl` [Compound #201, 2-[(2,4-DICHLORO-BENZOYL)-(2-NITRO-BENZYL)-AMINO]-3-PHENYL-PROPIONIC ACID], the IC50 was 5 to 20 µM. In the case of `O=C(O)[C@H](Cc1ccccc1)N(Cc1ccc([N+](=O)[O-])cc1)C(=O)c1ccc(Cl)cc1Cl` [Compound #202, 2-[(2,4-DICHLORO-BENZOYL)-(4-NITRO-BENZYL)-AMINO]-3-PHENYL-PROPIONIC] it was 5 to 20 µM. In the case of `N#Cc1ccccc1CN(C(=O)c1ccc(Cl)cc1Cl)[C@@H](Cc1ccccc1)C(=O)O` [Compound #203, 2-[(2-CYANO-BENZYL)-(2,4-DICHLORO-BENZOYL)-AMINO]-3-PHENYL-PROPIONIC ACID] it was 5 to 20 µM. With `N#Cc1ccc(CN(C(=O)c2ccc(Cl)cc2Cl)[C@@H](Cc2ccccc2)C(=O)O)cc1` [Compound #204, 2-[(4-CYANO-BENZYL)-(2,4-DICHLORO-BENZOYL)-AMINO]-3-PHENYL-PROPIONIC ACID] the figure was 5 to 20 µM; with `CS(=O)(=O)c1cccc(CN(C(=O)c2ccc(Cl)cc2Cl)[C@@H](Cc2ccccc2)C(=O)O)c1` [Compound #208, 2-[(2,4-DICHLORO-BENZOYL)-(3-METHANESULFONYL-BENZYL)-AMINO]-3-PHENYL-PROPIONIC ACID], 5 to 20 µM; with `CC(=O)c1cccc(CN(C(=O)c2ccc(Cl)cc2Cl)[C@@H](Cc2ccccc2)C(=O)O)c1` [Compound #209, 2-[(3-ACETYL-BENZYL)-(2,4-DICHLORO-BENZOYL)-AMINO]-3-PHENYL-PROPIONIC ACID], less than 5 µM. For the compound `O=C(O)[C@H](Cc1ccccc1)N(Cc1ccc[n+]([O-])c1)C(=O)c1ccc(Cl)cc1Cl` [Compound #210, 2-[(2,4-DICHLORO-BENZOYL)-(1-OXY-PYRIDIN-3-YLMETHYL)-AMINO]-3-PHENYL-PROPIONIC ACID], the IC50 was less than 5 µM. For the compound `O=C(O)[C@H](Cc1ccccc1)N(Cc1ccc(-c2cccc(C(F)(F)F)c2)s1)C(=O)c1ccc(Cl)cc1Cl` [Compound #211, 2-{(2,4-Dichloro-benzoyl)-[5-(3-trifluoromethyl-phenyl)-thiophen-2-ylmethyl]-amino}-3-phenyl-propionic acid], the half-inhibitory concentration (IC50) was in the range of 5 to 20 µM.

Take `N#Cc1cccc(CN(C(=O)c2ccc(Cl)cc2Cl)[C@@H](Cc2ccccc2)C(=O)O)c1` [compound #54, (2S)-2-[(3-Cyano-benzyl)-(2,4-dichloro-benzoyl)-amino]-3-phenyl-propionic acid]: the IC50 was less than 5 µM. With `O=C(O)[C@H](Cc1ccccc1)N(Cc1cnc(-c2cccc([N+](=O)[O-])c2)s1)C(=O)c1ccc(Cl)cc1Cl` [compound #64, 2-{(2,4-Dichloro-benzoyl)-[2-(3-nitro-phenyl)-thiazol-5-ylmethyl]-amino}-3-phenyl-propionic acid] the figure was less than 5 µM; with `O=C(O)[C@H](Cc1ccccc1)N(Cc1cnc(-c2cc3ccccc3o2)s1)C(=O)c1ccc(Cl)cc1Cl` [compound #86, 2-[(2-Benzofuran-2-yl-thiazol-5-ylmethyl)-(2,4-dichloro-benzoyl)-amino]-3-phenyl-propionic acid], less than 5 µM. `O=C(O)[C@H](Cc1ccccc1)N(Cc1cnc(Cl)s1)C(=O)c1ccc(Cl)cc1Cl` [compound #140, (2s)-2-[(2-Chloro-thiazol-5-ylmethyl)-(2,4-dichloro-benzoyl)-amino]-3-phenyl-propionic acid]: the IC50 was less than 5 µM. Turning to `O=C(O)[C@H](Cc1ccccc1)N(Cc1ccc(-c2ccc(F)cc2)s1)C(=O)c1ccc(Cl)cc1Cl` [compound #141, (2s)-2-{(2,4-Dichloro-benzoyl)-[5-(4-fluoro-phenyl)-thiophen-2-ylmethyl]-amino}-3-phenyl-propionic acid], the concentration for half-maximal inhibition (IC50) is less than 5 µM. As for `O=C(O)[C@H](Cc1ccccc1)N(Cc1sccc1-c1ccc(F)c(Cl)c1)C(=O)c1ccc(Cl)cc1Cl` [compound #145, (2s)-2-[[3-(3-Chloro-4-fluoro-phenyl)-thiophen-2-ylmethyl]-(2,4-dichloro-benzoyl)-amino]-3-phenyl-propionic acid], the IC50 was in the range of 5 to 20 µM. With `O=C(O)[C@H](Cc1ccccc1)N(Cc1sccc1Br)C(=O)c1ccc(Cl)cc1Cl` [compound #146, (2s)-2-[(3-Bromo-thiophen-2-ylmethyl)-(2,4-dichloro-benzoyl)-amino]-3-phenyl-propionic acid] the figure was less than 5 µM; with `CC(C)(C(=O)O)N(Cc1ccc(-c2cccc(C(F)(F)F)c2)o1)C(=O)c1ccc(Cl)cc1Cl` [compound #147, (2s)-2-{(2,4-Dichloro-benzoyl)-[5-(3-trifluoromethyl-phenyl)-furan-2-ylmethyl]-amino}-2-methyl-propionic acid], 5 to 20 µM; with `O=C(O)[C@H](Cc1ccccc1)N(Cc1cnc(-c2cccc(C(F)(F)F)c2)s1)C(=O)c1ccc(Cl)cc1Cl` [compound #148, (2s)-2-{(2,4-Dichloro-benzoyl)-[2-(3-trifluoromethyl-phenyl)-thiazol-5-ylmethyl]-amino}-3-phenyl-propionic acid], less than 5 µM. In the case of `O=C(O)[C@H](Cc1ccccc1)N(Cc1csc([N+](=O)[O-])c1)C(=O)c1ccc(Cl)cc1Cl` [compound #149, (2s)-2-[(2,4-Dichloro-benzoyl)-(5-nitro-thiophen-3-ylmethyl)-amino]-3-phenyl-propionic acid], the IC50 is less than 5 µM. `CS(=O)(=O)c1ccc(CN(C(=O)c2ccc(Cl)cc2Cl)[C@@H](Cc2ccccc2)C(=O)O)cc1` [compound #150, (2s)-2-[(2,4-Dichloro-benzoyl)-(4-methanesulfonyl-benzyl)-amino]-3-phenyl-propionic acid]: the IC50 was less than 5 µM. Take `COc1cccc(CN(C(=O)c2ccc(Cl)cc2Cl)[C@@H](Cc2ccccc2)C(=O)O)c1` [compound #151, (2s)-2-[(2,4-Dichloro-benzoyl)-(3-methoxy-benzyl)-amino]-3-phenyl-propionic acid]: the IC50 was less than 5 µM.

With `Cc1cccc(CN(C(=O)c2ccc(Cl)cc2Cl)[C@@H](Cc2ccccc2)C(=O)O)c1` [compound #152, (2s)-2-[(2,4-Dichloro-benzoyl)-(3-methyl-benzyl)-amino]-3-phenyl-propionic acid], the IC50 is less than 5 µM. As for `Cn1nc(C(F)(F)F)c(CN(C(=O)c2ccc(Cl)cc2Cl)[C@@H](Cc2ccccc2)C(=O)O)c1Oc1cccc(Cl)c1` [compound #153, (2s)-2-[[5-(3-Chloro-phenoxy)-1-methyl-3-trifluoromethyl-1h-pyrazol-4-ylmethyl]-(2,4-dichloro-benzoyl)-amino]-3-phenyl-propionic acid], the half-maximal inhibitory concentration (IC50) lay in the range of 5 to 20 µM.
